Test results reported in US6774235B2, “Trisubstituted 1,3,5-triazine derivatives” (Janssen Pharmaceutica N.V., priority 1998, dated 2004).
Read-outs that look alike come from different tables or passages of the source.

Columns and labels:
MT-4 = experiment: Cytotoxicity in mock-infected MT-4 cells (MTT)
Description: (§1) A rapid, sensitive and automated assay procedure was used for the in vitro evaluation of anti-HIV agents. An HIV-1 (wildtype IIIB) transformed T4-cell line, MT-4, which was previously shown (Koyanagi et al., Int. J Cancer, 36, 445-451, 1985) to be highly susceptible to and permissive for HIV infection, served as the target cell line. Inhibition of the HIV-induced cytopathic effect was used as the end point. […] The percent protection achieved by the compound in HIV-infected cells was calculated by the following formula: [formula]
(§2) whereby (ODT)HIV is the optical density measured with a given concentration of the test compound in HIV-infected cells; (ODC)HIV is the optical density measured for the control untreated HIV-infected cells; (ODC)MOCK is the optical density measured for the control untreated mock-infected cells; all optical density values were determined at 540 nm. […] The ratio of CC50 to IC50 was defined as the selectivity index (SI).

HIV-1 (wildtype IIIB) = experiment: microbe, parasite or virus in culture; type: cell-based; conditions: dose achieving 50% protection of HIV-1 (IIIB) infected MT-4 cells, MTT, OD 540 nm
Description: as §1, §2

[1] = Cytotoxicity in mock-infected MT-4 cells (MTT); conditions: human, mock-infected MT-4 cells
Description: as §1, §2

[2] = Human immunodeficiency virus 1, MT4
[3] = concentration reducing absorbance of mock-infected MT-4 control by 50%, MTT

| Structure (SMILES) | CC50 (MT-4) | IC50 (HIV-1 (wildtype IIIB)) | CC50 [1] | IC50 (HIV-1 (wildtype IIIB); [2]) | CC50 (MT-4; [3]) |
| --- | --- | --- | --- | --- | --- |
| CCc1cccc(CC)c1Nc1nc(N)nc(Nc2ccc(C#N)cc2)n1 [Compound 12] | 30000 nM | 21 nM | – | – | – |
| CC(=O)c1ccc(C)cc1Nc1nc(N)nc(Nc2ccc(C#N)cc2)n1 [Compound 13] | > 100000 nM | 259 nM | – | – | – |
| Cc1cccc(Cl)c1Nc1nc(N)nc(Nc2ccc(C#N)cc2)n1 [Compound 7, 4-[[4-amino-6-[(2-chloro-6-methylphenyl)amino]-1,3,5-triazin-2-yl]amino]benzonitrile] | – | – | 49900 nM | 5 nM | – |
| N#Cc1ccc(Nc2nc(N)nc(Sc3cc(Cl)c(Cl)cc3Cl)n2)cc1 [Compound 56] | 62600 nM | 5 nM | – | – | – |
| Cc1ccc(Cl)c(C)c1Nc1nc(N)nc(Nc2ccc(C#N)cc2)n1 [Compound 28] | 42800 nM | 5 nM | – | – | – |
| Cc1ccc(Cl)c(C)c1Nc1nc(NO)nc(Nc2ccc(C#N)cc2)n1 [Compound 31] | 9900 nM | 5 nM | – | – | – |
| Cc1c(Cl)c(C)c(Br)c(Oc2nc(N)nc(Nc3ccc(C#N)cc3)n2)c1Br [Compound 48] | 8700 nM | 19 nM | – | – | – |
| N#Cc1ccc(Nc2nc(N)nc(Oc3c(Cl)cc(F)cc3Cl)n2)cc1 [Compound 45] | 52900 nM | 7 nM | – | – | – |
| N#Cc1ccc(Nc2nc(N)nc(Sc3ccc(F)cc3Cl)n2)cc1 [Compound 55] | > 99900 nM | 4 nM | – | – | – |
| CC(C)c1cc(Br)c(Nc2nc(Nc3ccc(C#N)cc3)nc(Nc3ccc(C#N)cc3)n2)c(Br)c1 [Compound 75] | 37800 nM | 378 nM | – | – | – |
| Cc1ccc(C)c(Oc2nc(N)nc(Nc3ccc(C#N)cc3)n2)c1 [Compound 2, 4-[[4-amino-6-(2,5-dimethylphenoxy)-1,3,5-triazin-2-yl]amino]benzonitrile] | – | – | 34900 nM | 3 nM | – |
| Cc1cc([N+](=O)[O-])cc(C)c1Oc1nc(N)nc(Nc2ccc(C#N)cc2)n1 [Compound 41, 4-[[4-amino-6-(4-nitro-2,6-dimethylphenoxy)-1,3,5-triazin-2-yl]amino]benzonitrile] | – | – | 12200 nM | 2 nM | – |
| Cc1cc(C)c(N=Nc2nc(N)nc(Nc3ccc(C#N)cc3)n2)c(C)c1 [Compound 69, 4-[[4-amino-6-[(2,4,6-trimethylphenyl)azo]-1,3,5-triazin-2-yl]aamino]benzonitrile] | – | 65 nM | – | – | > 99900 nM |
| N#Cc1ccc(Nc2nc(N)nc(Nc3c(F)c(F)c(F)c(F)c3F)n2)cc1 [Compound 67] | 45600 nM | 111 nM | – | – | – |
| N#Cc1ccc(Nc2nc(N)nc(Oc3c(F)c(F)c(O)c(F)c3F)n2)cc1 [Compound 80] | – | 85500 nM | – | – | > 85500 nM |
| N#Cc1ccc(Nc2nc(N)nc(Oc3c(Br)cc(Br)cc3Br)n2)cc1 [Compound 40, 4-[[4-amino-6-(2,4,6-tribromophenoxy)-1,3,5-triazin-2-yl]amino]benzonitrile] | – | – | > 10000 nM | 5 nM | – |
| Cc1cc(Br)cc(Cl)c1Nc1nc(N)nc(Nc2ccc(C#N)cc2)n1 [Compound 63, 4-[[4-amino-6-[(4-bromo-2-chloro-6-methylphenyl)amino]-1,3,5-triazin-2-yl]amino]-benzonitrile] | – | – | 48000 nM | 3 nM | – |
| Cc1cc(C)c(Nc2nc(N)nc(Nc3ccc(C#N)cc3)n2)c(Cl)c1 [Compound 65, 4-[[4-amino-6-[(2-chloro-4,6-dimethylphenyl)amino]-1,3,5-triazin-2-yl]amino]-benzonitrile] | – | – | 48500 nM | 1 nM | – |
| Cc1ccc(Oc2nc(N)nc(Nc3ccc(C#N)cc3)n2)c(C)c1 [Compound 62] | 51600 nM | 3 nM | – | – | – |

| Structure (SMILES) | CC50 (MT-4) | IC50 (HIV-1 (wildtype IIIB)) | CC50 [1] | IC50 (HIV-1 (wildtype IIIB); [2]) | CC50 (MT-4; [3]) |
| --- | --- | --- | --- | --- | --- |
| Cc1ccc(Sc2nc(N)nc(Nc3ccc(C#N)cc3)n2)c(C)c1 [Compound 59] | 48500 nM | 2 nM | – | – | – |
| N#Cc1ccc(Nc2nc(NO)nc(Nc3c(Cl)cccc3Cl)n2)cc1 [Compound 4, 4-[[[6-(2,6-dichlorophenylamino)-4-(hydroxylamino)]-1,3,5-triazin-2-yl]amino]-benzonitrile] | 8000 nM | 2 nM | – | – | – |
| N#Cc1ccc(Nc2nc(N)nc(Oc3c(F)cc(F)cc3F)n2)cc1 [Compound 44] | > 100000 nM | 5 nM | – | – | – |
| Cc1cc(Cl)cc(Cl)c1Oc1nc(N)nc(Nc2ccc(C#N)cc2)n1 [Compound 34] | 4800 nM | 1 nM | – | – | – |
| Cc1cc(I)cc(C)c1Oc1nc(N)nc(Nc2ccc(C#N)cc2)n1 [Compound 60] | 45500 nM | 3 nM | – | – | – |
| N#Cc1ccc(Nc2nc(NO)nc(Sc3c(Cl)cccc3Cl)n2)cc1 [Compound 20] | 11700 nM | 3 nM | – | – | – |
| Cc1cc(C)c(Sc2nc(N)nc(Nc3ccc(C#N)cc3)n2)c(C)c1 [Compound 58] | 47100 nM | 3 nM | – | – | – |
| N#Cc1ccc(Nc2nc(N)nc(Oc3c(Cl)cc(Cl)cc3Cl)n2)cc1 [Compound 30] | 63500 nM | 2 nM | – | – | – |
| Cc1cc(Nc2nc(N)nc(Nc3ccc(C#N)cc3)n2)c(Cl)cc1F [Compound 66] | > 99900 nM | 96 nM | – | – | – |
| COc1cccc(OC)c1Oc1nc(N)nc(Nc2ccc(C#N)cc2)n1 [Compound 46] | > 100000 nM | 31 nM | – | – | – |
| CC(=O)c1cc(F)cc(F)c1Oc1nc(N)nc(Nc2ccc(C#N)cc2)n1 [Compound 49] | > 99900 nM | 76 nM | – | – | – |
| Cc1cccc(C)c1Nc1nc(NO)nc(Nc2ccc(C#N)cc2)n1 [Compound 5] | 7800 nM | 2 nM | – | – | – |
| N#Cc1ccc(Nc2nc(N)nc(Nc3c(Cl)cccc3Cl)n2)cc1 [Compound 10] | 6100 nM | 3 nM | – | – | – |
| Cc1cc(Cl)c(C)c(C)c1Oc1nc(N)nc(Nc2ccc(C#N)cc2)n1 [Compound 52] | 1900 nM | 3 nM | – | – | – |
| COc1cc(OC)c(Nc2nc(N)nc(Nc3ccc(C#N)cc3)n2)c(OC)c1 [Compound 68] | 63900 nM | 15 nM | – | – | – |
| N#Cc1ccc(Nc2nc(N)nc(Oc3c(Cl)ccc(Cl)c3Cl)n2)cc1 [Compound 43] | 43900 nM | 9 nM | – | – | – |
| N#Cc1ccc(Nc2nc(N)nc(Nc3c(Cl)cc(C(F)(F)F)cc3Cl)n2)cc1 [Compound 70] | 15600 nM | 3 nM | – | – | – |
| N#Cc1ccc(Nc2nc(N)nc(Nc3c(F)cc(F)cc3Br)n2)cc1 [Compound 17] | 53800 nM | 3 nM | – | – | – |
| Cc1cc(Br)c(Nc2nc(Nc3ccc(C#N)cc3)nc(Nc3ccc(C#N)cc3)n2)c(Br)c1 [Compound 74, N,-[6-[(2,6-dibromo-4-methylphenyl)amino]-1,3,5-triazine-2,4-diyl]bis[4-amino-benzonitrile]] | 7000 nM | 190 nM | – | – | – |

| Structure (SMILES) | CC50 (MT-4) | IC50 (HIV-1 (wildtype IIIB)) | CC50 [1] | IC50 (HIV-1 (wildtype IIIB); [2]) | CC50 (MT-4; [3]) |
| --- | --- | --- | --- | --- | --- |
| CC(=O)c1cc(Cl)cc(Cl)c1Oc1nc(N)nc(Nc2ccc(C#N)cc2)n1 [Compound 39] | < 10000 nM | > 10000 nM | – | – | – |
| Cc1cc(N)cc(C)c1Oc1nc(N)nc(Nc2ccc(C#N)cc2)n1 [Compound 78] | 47000 nM | 7830 nM | – | – | – |
| Cc1cc(C)c(Nc2nc(N)nc(Nc3ccc(C#N)cc3)n2)c(C)c1N [Compound 61] | 94600 nM | 5 nM | – | – | – |
| Cc1cc(C)c(Nc2nc(N)nc(Nc3ccc(C#N)cc3)n2)c(C)c1Br [Compound 15] | 1700 nM | 3 nM | – | – | – |
| N#Cc1ccc(Nc2nc(N)nc(NNc3c(Cl)cccc3Cl)n2)cc1 [Compound 22] | > 100000 nM | 3 nM | – | – | – |
| N#Cc1ccc(Nc2nc(N)nc(NNc3c(Cl)cc(Cl)cc3Cl)n2)cc1 [Compound 21] | 27800 nM | 1 nM | – | – | – |
| N#Cc1ccc(Nc2nc(N)nc(Nc3c(Br)cc(Br)cc3Br)n2)cc1 [Compound 72] | 6500 nM | 2 nM | – | – | – |
| N#Cc1ccc(Nc2nc(N)nc(Oc3c(Cl)cccc3Cl)n2)cc1 [Compound 1] | > 20000 nM | 3 nM | – | – | – |
| N#Cc1ccc(Nc2nc(N)nc(Oc3ccc(Cl)cc3Cl)n2)cc1 [Compound 38] | > 100000 nM | 7 nM | – | – | – |
| N#Cc1ccc(Nc2nc(N)nc(Oc3c(Cl)c(Cl)c(Cl)c(Cl)c3Cl)n2)cc1 [Compound 42] | > 10000 nM | 33 nM | – | – | – |
| N#Cc1ccc(Nc2nc(N)nc(Sc3ccc(F)cc3F)n2)cc1 [Compound 57] | > 100000 nM | 15 nM | – | – | – |
| Cc1c(Br)c(C)c(Br)c(Oc2nc(N)nc(Nc3ccc(C#N)cc3)n2)c1Br [Compound 50] | 8100 nM | 59 nM | – | – | – |
| N#Cc1ccc(Nc2nc(N)nc(Nc3c(Cl)cc(Cl)cc3Cl)n2)cc1 [Compound 18] | 45600 nM | 8 nM | – | – | – |
| Cc1c(Cl)cc(N)c(Oc2nc(N)nc(Nc3ccc(C#N)cc3)n2)c1Cl [Compound 81] | > 99100 nM | 2680 nM | – | – | – |
| CCc1cc(Br)cc(CC)c1Nc1nc(N)nc(Nc2ccc(C#N)cc2)n1 [Compound 64] | 46500 nM | 14 nM | – | – | – |
| COC(=O)c1cc(OC)c(OC)c(OC)c1Nc1nc(N)nc(Nc2ccc(C#N)cc2)n1 [Compound 82] | 99600 nM | 1490 nM | – | – | – |
| Cc1c(C)c(Oc2nc(N)nc(Nc3ccc(C#N)cc3)n2)c(Cl)c(C)c1Cl [Compound 53] | 2500 nM | 17 nM | – | – | – |
| COc1cc(C#N)ccc1Oc1nc(N)nc(Nc2ccc(C#N)cc2)n1 [Compound 47] | > 100000 nM | 75 nM | – | – | – |
| Cc1cccc(C(C)C)c1Nc1nc(N)nc(Nc2ccc(C#N)cc2)n1 [Compound 8] | 9300 nM | 165 nM | – | – | – |
